Results reported in ChEMBL document CHEMBL1141332, “Cytotoxic metabolites from an Indonesian sponge Lendenfeldia sp” (J Nat Prod, 2007).
Values joined by “and” are separate entries in the source; they are usually repeats but may differ in a detail not shown here. Equal entries are not always repeated.

Assays:
Format in all cases: functional
OVCAR-4 = test: Cytotoxicity against human OVCAR4 cells
PC-3 = test: Cytotoxicity against human PC3 cells
OVCAR-5 = test: Cytotoxicity against human OVCAR5 cells
UACC-257 = test: Cytotoxicity against human UACC257 cells
786-0 = test: Cytotoxicity against human 786-0 cells
NCI-H23 = test: Cytotoxicity against human NCI-H23 cells
IGROV-1 = test: Cytotoxicity against human IGROV1 cells
SK-MEL-28 = test: Cytotoxicity against human SK-MEL-28 cells
HOP-62 = test: Cytotoxicity against human HOP62 cells
COLO 205 = test: Cytotoxicity against human COLO205 cells
NCI/ADR-RES = test: Cytotoxicity against human NCI/ADR-RES cells
HCT-15 = test: Cytotoxicity against human HCT15 cells
SF-268 = test: Cytotoxicity against human SF268 cells
TK-10 = test: Cytotoxicity against human TK10 cells
SK-MEL-5 = test: Cytotoxicity against human SK-MEL-5 cells
RPMI-8226 = test: Cytotoxicity against human RPMI8226 cells
DU-145 = test: Cytotoxicity against human DU145 cells
NCI-H226 = test: Cytotoxicity against human NCI-H226 cells
HCC 2998 = test: Cytotoxicity against human HCC2998 cells
LOX IMVI = test: Cytotoxicity against human LOX IMVI cells
UACC-62 = test: Cytotoxicity against human UACC62 cells
HOP-92 = test: Cytotoxicity against human HOP92 cells
OVCAR-8 = test: Cytotoxicity against human OVCAR8 cells
K562 = test: Cytotoxicity against human K562 cells
Malme-3M = test: Cytotoxicity against human MALME-3M cells
SW-620 = test: Cytotoxicity against human SW620 cells
SK-OV-3 = test: Cytotoxicity against human SK-OV-3 cells
U-251 = test: Cytotoxicity against human U251cells
MCF7 = test: Cytotoxicity against human MCF7 cells
SN12C = test: Cytotoxicity against human SN12C cells
HL-60 = test: Cytotoxicity against human HL60 cells
NCI-H322M = test: Cytotoxicity against human NCI-H322M cells
MOLT-4 = test: Cytotoxicity against human MOLT4 cells
OVCAR-3 = test: Cytotoxicity against human OVCAR-3 cells
M14 = test: Cytotoxicity against human M14 cells
SF-295 = test: Cytotoxicity against human SF295 cells
BT-549 = test: Cytotoxicity against human BT549 cells
RXF 393 = test: Cytotoxicity against human RXF393 cells
A498 = test: Cytotoxicity against human A498 cells
A549 = test: Cytotoxicity against human A549 cells
T47D = test: Cytotoxicity against human T47D cells
SF-539 = test: Cytotoxicity against human SF539 cells
NCI-H460 = test: Cytotoxicity against human NCI-H460 cells
ACHN = test: Cytotoxicity against human ACHN cells
SR = test: Cytotoxicity against human SR cells
UO-31 = test: Cytotoxicity against human UO31 cells
[1] = read-out: Log LC50 (the source's name) (converted)

For `CC(=O)O[C@H]1C[C@H]2[C@@](C)(CC[C@H]3C(C)(C)CCC[C@@]32CO)[C@@H]2CC=C(C(C)=O)[C@H](C=O)[C@@]12C`, the GI50 (OVCAR-4) was 575 nM, the CC50 (OVCAR-4; [1]) was 5010 nM and the TGI (OVCAR-4; read-out: Log TGI (converted)) was 1910 nM. It also gave a GI50 (PC-3) of 380 nM, an LC50 (PC-3) of 3800 nM and a TGI (PC-3; read-out: Log TGI (converted)) of 1350 nM. It also gave a GI50 (OVCAR-5) of 832 nM, a CC50 (OVCAR-5; [1]) of 4680 nM and a TGI (OVCAR-5; read-out: Log TGI (converted)) of 2090 nM. It also gave a GI50 (UACC-257) of 1950 nM, a CC50 (UACC-257; [1]) of 9550 nM and a TGI (UACC-257; read-out: Log TGI (converted)) of 4370 nM. For the same compound, the GI50 (786-0) was 224 nM, the CC50 (786-0; [1]) was 1170 nM and the TGI (786-0; read-out: Log TGI (converted)) was 490 nM. For the same compound, the GI50 (NCI-H23) was 1410 nM, the CC50 (NCI-H23; [1]) was 5500 nM and the TGI (NCI-H23; read-out: Log TGI (converted)) was 2750 nM. It also gave a GI50 (IGROV-1) of 1580 nM, a CC50 (IGROV-1; [1]) of 7080 nM and a TGI (IGROV-1; read-out: Log TGI (converted)) of 3310 nM. The GI50 (SK-MEL-28) was 251 nM, the CC50 (SK-MEL-28; [1]) was 2290 nM and the TGI (SK-MEL-28; read-out: Log TGI (converted)) was 631 nM. It also gave a GI50 (HOP-62) of 295 nM, a CC50 (HOP-62; [1]) of 2450 nM and a TGI (HOP-62; read-out: Log TGI (converted)) of 724 nM. The GI50 (COLO 205) was 295 nM, the CC50 (COLO 205; [1]) was 4370 nM and the TGI (COLO 205; read-out: Log TGI (converted)) was 1320 nM. It also gave a GI50 (NCI/ADR-RES) of 1070 nM, an LC50 (NCI/ADR-RES) of 6170 nM and a TGI (NCI/ADR-RES; read-out: Log TGI (converted)) of 2570 nM. It also gave a GI50 (HCT-15) of 224 nM, a CC50 (HCT-15; [1]) of 1230 nM and a TGI (HCT-15; read-out: Log TGI (converted)) of 490 nM. The GI50 (SF-268) was 447 nM, the CC50 (SF-268; [1]) was 6170 nM and the TGI (SF-268; read-out: Log TGI (converted)) was 1860 nM. It also gave a GI50 (TK-10) of 302 nM, an LC50 (TK-10) of 3390 nM and a TGI (TK-10; read-out: Log TGI (converted)) of 891 nM. For the same compound, the GI50 (SK-MEL-5) was 501 nM, the CC50 (SK-MEL-5; [1]) was 4070 nM and the TGI (SK-MEL-5; read-out: Log TGI (converted)) was 1700 nM. For the same compound, the GI50 (RPMI-8226) was 427 nM, the CC50 (RPMI-8226; [1]) was 8130 nM and the TGI (RPMI-8226; read-out: Log TGI (converted)) was 1820 nM. For the same compound, the GI50 (DU-145) was 457 nM, the LC50 (DU-145) was 3980 nM and the TGI (DU-145; read-out: Log TGI (converted)) was 1580 nM. The GI50 (NCI-H226) was 1380 nM, the CC50 (NCI-H226; [1]) was over 100000 nM and the TGI (NCI-H226; read-out: Log TGI (converted)) was 2820 nM. The GI50 (HCC 2998) was 1000 nM, the CC50 (HCC 2998; [1]) was 4790 nM and the TGI (HCC 2998; read-out: Log TGI (converted)) was 2190 nM. The GI50 (LOX IMVI) was 234 nM, the CC50 (LOX IMVI; [1]) was 1780 nM and the TGI (LOX IMVI; read-out: Log TGI (converted)) was 550 nM. The GI50 (UACC-62) was 1480 nM, the CC50 (UACC-62; [1]) was 5370 nM and the TGI (UACC-62; read-out: Log TGI (converted)) was 2820 nM. For the same compound, the GI50 (HOP-92) was 1350 nM, the CC50 (HOP-92; [1]) was 5500 nM and the TGI (HOP-92; read-out: Log TGI (converted)) was 2750 nM. It also gave a GI50 (OVCAR-8) of 263 nM, a TGI (OVCAR-8; read-out: Log TGI (converted)) of 692 nM and a GI50 (K562) of 2190 nM. For the same compound, the CC50 (K562; [1]) was 30200 nM, the TGI (K562; read-out: Log TGI (converted)) was 7760 nM and the GI50 (Malme-3M) was 1290 nM. It also gave a CC50 (Malme-3M; [1]) of 5890 nM, a TGI (Malme-3M; read-out: Log TGI (converted)) of 2750 nM and a GI50 (SW-620) of 162 nM. For the same compound, the CC50 (SW-620; [1]) was 676 nM, the TGI (SW-620; read-out: Log TGI (converted)) was 331 nM and the GI50 (SK-OV-3) was 1200 nM. For the same compound, the CC50 (SK-OV-3; [1]) was 6310 nM, the TGI (SK-OV-3; read-out: Log TGI (converted)) was 2750 nM and the GI50 (U-251) was 347 nM. It also gave a CC50 (U-251; [1]) of 3470 nM, a TGI (U-251; read-out: Log TGI (converted)) of 1200 nM and a GI50 (MCF7) of 776 nM. For the same compound, the LC50 (MCF7) was 25700 nM, the TGI (MCF7; read-out: Log TGI (converted)) was 3470 nM and the GI50 (SN12C) was 1200 nM. It also gave an LC50 (SN12C) of 5010 nM, a TGI (SN12C; read-out: Log TGI (converted)) of 2450 nM and a GI50 (HL-60; Homo sapiens, HL-60) of 170 nM. For the same compound, the TGI (HL-60; read-out: Log TGI (converted)) was 537 nM and 2630 nM, the GI50 (NCI-H322M) was 1910 nM and the CC50 (NCI-H322M; [1]) was 7590 nM. It also gave a TGI (NCI-H322M; read-out: Log TGI (converted)) of 3800 nM, a GI50 (MOLT-4) of 195 nM and a CC50 (MOLT-4; [1]) of 1950 nM. It also gave a TGI (MOLT-4; read-out: Log TGI (converted)) of 513 nM, a GI50 (OVCAR-3) of 204 nM and a CC50 (OVCAR-3; [1]) of 676 nM. The TGI (OVCAR-3; read-out: Log TGI (converted)) was 372 nM, the GI50 (M14) was 1000 nM and the CC50 (M14; [1]) was 4900 nM. The TGI (M14; read-out: Log TGI (converted)) was 2240 nM, the GI50 (SF-295) was 479 nM and the CC50 (SF-295; [1]) was 4270 nM. It also gave a TGI (SF-295; read-out: Log TGI (converted)) of 1740 nM, a GI50 (BT-549) of 214 nM and an LC50 (BT-549) of 977 nM. It also gave a TGI (BT-549; read-out: Log TGI (converted)) of 457 nM, a GI50 (RXF 393) of 295 nM and an LC50 (RXF 393) of 3630 nM. The TGI (RXF 393; read-out: Log TGI (converted)) was 1120 nM, the GI50 (A498) was 1480 nM and the LC50 (A498) was 5890 nM. It also gave a TGI (A498; read-out: Log TGI (converted)) of 2950 nM, a GI50 (A549) of 562 nM and a CC50 (A549; [1]) of 4680 nM. The TGI (A549; read-out: Log TGI (converted)) was 1860 nM, the GI50 (T47D) was 1020 nM and the LC50 (T47D) was 8910 nM. The TGI (T47D; read-out: Log TGI (converted)) was 3020 nM, the GI50 (SF-539) was 195 nM and the CC50 (SF-539; [1]) was 794 nM. It also gave a TGI (SF-539; read-out: Log TGI (converted)) of 389 nM, a GI50 (NCI-H460) of 759 nM and a CC50 (NCI-H460; [1]) of 6030 nM. It also gave a TGI (NCI-H460; read-out: Log TGI (converted)) of 2290 nM, a GI50 (ACHN) of 282 nM and an LC50 (ACHN) of 3240 nM. It also gave a TGI (ACHN; read-out: Log TGI (converted)) of 1070 nM, a GI50 (SR) of 288 nM and a CC50 (SR; [1]) of 3720 nM. The TGI (SR; read-out: Log TGI (converted)) was 759 nM, the GI50 (UO-31) was 417 nM and the LC50 (UO-31) was 3980 nM. The TGI (UO-31; read-out: Log TGI (converted)) was 1450 nM.
